Experiments:
Assay in all cases: relative viability (nuclei count vs DMSO), 5 days (fraction); higher = more cells survive
BEN = tested on: BEN
In short: (§1)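 A single step with final 0.05% Triton X-100, 1% formaldehyde and 1 ug/ml Hoechst fixed the cells and stained nuclei 5 days after treatment. Lung cancer cell lines in 1536-well plates had been treated by pin tool the day after seeding with one drug alone or a fixed anchor-drug dose plus five library-drug doses (not always all listed) in √10 steps, and nuclei were counted on 4× images. Relative viability is the ratio of nuclei in treated wells to nuclei in vehicle wells, taken as the median of duplicate plates.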

ChaGo-K-1 = tested on: ChaGo-K-1
In short: as §1

HCC-78 = tested on: HCC-78
In short: as §1

LC-2-ad = tested on: LC-2-ad
In short: as §1

LCLC-97TM1 = tested on: LCLC-97TM1
In short: as §1

LK-2 = tested on: LK-2
In short: as §1

LU99A = tested on: LU99A
In short: as §1

LXF-289 = tested on: LXF-289
In short: as §1

NCI-H1355 = tested on: NCI-H1355
In short: as §1

NCI-H1651 = tested on: NCI-H1651
In short: as §1

NCI-H1666 = tested on: NCI-H1666
In short: as §1

NCI-H1944 = tested on: NCI-H1944
In short: as §1

NCI-H1975 = tested on: NCI-H1975
In short: as §1

NCI-H2087 = tested on: NCI-H2087
In short: as §1

NCI-H358 = tested on: NCI-H358
In short: as §1

NCI-H596 = tested on: NCI-H596
In short: as §1

NCI-H650 = tested on: NCI-H650
In short: as §1

NCI-H661 = tested on: NCI-H661
In short: as §1

NCI-H838 = tested on: NCI-H838
In short: as §1

PC-3 [JPC-3] = tested on: PC-3 [JPC-3]
In short: as §1

SK-MES-1 = tested on: SK-MES-1
In short: as §1

Work on `CCN(CC)CCCCNc1ncc2cc(-c3cc(OC)cc(OC)c3)c(NC(=O)NC(C)(C)C)nc2n1` + C[C@@H](Oc1cc(-c2cnn(C3CCNCC3)c2)cnc1N)c1c(Cl)ccc(F)c1Cl [Crizotinib] (partner 1 µM) yielded a relative viability (BEN; first compound 0.01 µM) of 1.05, a relative viability (BEN; first compound 0.03162 µM) of 0.85 and a relative viability (BEN; first compound 0.1 µM) of 0.867. For the same compound, the relative viability (BEN; first compound 0.3162 µM) was 0.835, the relative viability (BEN; first compound 1 µM) was 0.699 and the relative viability (ChaGo-K-1; first compound 0.01 µM) was 1.24. The relative viability (ChaGo-K-1; first compound 0.03162 µM) was 1.08, the relative viability (ChaGo-K-1; first compound 0.1 µM) was 1.09 and the relative viability (ChaGo-K-1; first compound 0.3162 µM) was 1.32. The relative viability (ChaGo-K-1; first compound 1 µM) was 1.06, the relative viability (HCC-78; first compound 0.03162 µM) was 0.318 and the relative viability (HCC-78; first compound 0.1 µM) was 0.347. For the same compound, the relative viability (HCC-78; first compound 0.3162 µM) was 0.368, the relative viability (HCC-78; first compound 1 µM) was 0.299 and the relative viability (LC-2-ad; first compound 0.01 µM) was 0.834. The relative viability (LC-2-ad; first compound 0.03162 µM) was 0.503, the relative viability (LC-2-ad; first compound 0.1 µM) was 0.49 and the relative viability (LC-2-ad; first compound 0.3162 µM) was 0.488. For the same compound, the relative viability (LC-2-ad; first compound 1 µM) was 0.39, the relative viability (LCLC-97TM1; first compound 0.03162 µM) was 0.45 and the relative viability (LCLC-97TM1; first compound 0.1 µM) was 0.373. It also gave a relative viability (LCLC-97TM1; first compound 0.3162 µM) of 0.396, a relative viability (LCLC-97TM1; first compound 1 µM) of 0.326 and a relative viability (LK-2; first compound 0.01 µM) of 0.235. It also gave a relative viability (LK-2; first compound 0.03162 µM) of 0.25, a relative viability (LK-2; first compound 0.1 µM) of 0.231 and a relative viability (LK-2; first compound 0.3162 µM) of 0.246. The relative viability (LK-2; first compound 1 µM) was 0.258, the relative viability (LU99A; first compound 0.01 µM) was 0.547 and the relative viability (LU99A; first compound 0.03162 µM) was 0.63. It also gave a relative viability (LU99A; first compound 0.1 µM) of 0.616, a relative viability (LU99A; first compound 0.3162 µM) of 0.583 and a relative viability (LU99A; first compound 1 µM) of 0.484. The relative viability (LXF-289; first compound 0.01 µM) was 0.836, the relative viability (LXF-289; first compound 0.03162 µM) was 0.817 and the relative viability (LXF-289; first compound 0.1 µM) was 0.916. The relative viability (LXF-289; first compound 0.3162 µM) was 0.824, the relative viability (LXF-289; first compound 1 µM) was 0.696 and the relative viability (NCI-H1355; first compound 0.01 µM) was 1.17. The relative viability (NCI-H1355; first compound 0.03162 µM) was 1.16, the relative viability (NCI-H1355; first compound 0.1 µM) was 1.05 and the relative viability (NCI-H1355; first compound 0.3162 µM) was 1.11. It also gave a relative viability (NCI-H1355; first compound 1 µM) of 1.06, a relative viability (NCI-H1651; first compound 0.01 µM) of 0.925 and a relative viability (NCI-H1651; first compound 0.03162 µM) of 0.851. It also gave a relative viability (NCI-H1651; first compound 0.1 µM) of 0.945, a relative viability (NCI-H1651; first compound 0.3162 µM) of 0.909 and a relative viability (NCI-H1651; first compound 1 µM) of 0.828. The relative viability (NCI-H1666; first compound 0.01 µM) was 1.17, the relative viability (NCI-H1666; first compound 0.03162 µM) was 0.985 and the relative viability (NCI-H1666; first compound 0.1 µM) was 0.895. It also gave a relative viability (NCI-H1666; first compound 0.3162 µM) of 1.02, a relative viability (NCI-H1666; first compound 1 µM) of 1.09 and a relative viability (NCI-H1944; first compound 0.01 µM) of 1.29. It also gave a relative viability (NCI-H1944; first compound 0.03162 µM) of 1.14, a relative viability (NCI-H1944; first compound 0.1 µM) of 1.12 and a relative viability (NCI-H1944; first compound 0.3162 µM) of 1.35. The relative viability (NCI-H1944; first compound 1 µM) was 1.09, the relative viability (NCI-H1975; first compound 0.01 µM) was 1.35 and the relative viability (NCI-H1975; first compound 0.03162 µM) was 1.02. It also gave a relative viability (NCI-H1975; first compound 0.1 µM) of 1.05, a relative viability (NCI-H1975; first compound 0.3162 µM) of 0.94 and a relative viability (NCI-H1975; first compound 1 µM) of 0.82. The relative viability (NCI-H2087; first compound 0.01 µM) was 0.925, the relative viability (NCI-H2087; first compound 0.03162 µM) was 0.967 and the relative viability (NCI-H2087; first compound 0.1 µM) was 1.01. The relative viability (NCI-H2087; first compound 0.3162 µM) was 0.958, the relative viability (NCI-H2087; first compound 1 µM) was 1.06 and the relative viability (NCI-H358; first compound 0.01 µM) was 0.639. For the same compound, the relative viability (NCI-H358; first compound 0.03162 µM) was 0.54, the relative viability (NCI-H358; first compound 0.1 µM) was 0.728 and the relative viability (NCI-H358; first compound 0.3162 µM) was 0.671. For the same compound, the relative viability (NCI-H358; first compound 1 µM) was 0.469, the relative viability (NCI-H596; first compound 0.01 µM) was 0.918 and the relative viability (NCI-H596; first compound 0.03162 µM) was 1.04. It also gave a relative viability (NCI-H596; first compound 0.1 µM) of 1.02, a relative viability (NCI-H596; first compound 0.3162 µM) of 0.956 and a relative viability (NCI-H596; first compound 1 µM) of 0.894. For the same compound, the relative viability (NCI-H650; first compound 0.01 µM) was 0.694, the relative viability (NCI-H650; first compound 0.03162 µM) was 0.618 and the relative viability (NCI-H650; first compound 0.1 µM) was 0.863. It also gave a relative viability (NCI-H650; first compound 0.3162 µM) of 0.743, a relative viability (NCI-H650; first compound 1 µM) of 0.606 and a relative viability (NCI-H661; first compound 0.03162 µM) of 1.03. For the same compound, the relative viability (NCI-H661; first compound 0.1 µM) was 0.972, the relative viability (NCI-H661; first compound 0.3162 µM) was 1.04 and the relative viability (NCI-H661; first compound 1 µM) was 1.17. For the same compound, the relative viability (NCI-H838; first compound 0.01 µM) was 0.919, the relative viability (NCI-H838; first compound 0.03162 µM) was 0.84 and the relative viability (NCI-H838; first compound 0.1 µM) was 0.955. It also gave a relative viability (NCI-H838; first compound 0.3162 µM) of 0.79, a relative viability (NCI-H838; first compound 1 µM) of 0.552 and a relative viability (PC-3 [JPC-3]; first compound 0.01 µM) of 1. For the same compound, the relative viability (PC-3 [JPC-3]; first compound 0.03162 µM) was 1.01, the relative viability (PC-3 [JPC-3]; first compound 0.1 µM) was 1.04 and the relative viability (PC-3 [JPC-3]; first compound 0.3162 µM) was 1.04. It also gave a relative viability (PC-3 [JPC-3]; first compound 1 µM) of 0.889, a relative viability (SK-MES-1; first compound 0.01 µM) of 1.06 and a relative viability (SK-MES-1; first compound 0.03162 µM) of 1.05. The relative viability (SK-MES-1; first compound 0.1 µM) was 1.14, the relative viability (SK-MES-1; first compound 0.3162 µM) was 1.03 and the relative viability (SK-MES-1; first compound 1 µM) was 1.01.
